SMILES strings stand for the structures.

The assay deals with HBV. Description: HBV inhibition assay: anti-HBV activity in vitro in HepG2.2.15 cells (extracellular HBV DNA by qPCR). Format: cell-based. The note with it: Hepatitis B virus, 120 h, five days after compound treatment, extracellular HBV DNA in culture supernatant by qPCR, concentration at which HBV replication is inhibited by 50%. An outline of the steps:
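HepG2.2.15 cells (stably carrying HBV genome) treated with half-log serially diluted compounds at 0.5% DMSO final for five days. Extracellular HBV DNA in supernatant quantified by qPCR after Proteinase K digestion; EC50 is concentration giving 50% inhibition of replication.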
The term EC50 denotes the concentration at which the effect is half-maximal. A higher EC50 goes with lower potency in that assay. `C[C@H]1Cn2ncc(N3CC(c4cocn4)CC3=O)c2CN1C(=O)Nc1cc(F)c(F)c(F)c1` (stereo partly drawn) [Example 352, (6S)-6-methyl-3-(4-oxazol-4-yl-2-oxo-pyrrolidin-1-yl)-N-(3,4,5-trifluorophenyl)-6,7-dihydro-4H-pyrazolo[1,5-a]pyrazine-5-carboxamide] came in with an EC50 of 14 nM.
On to `C[C@H]1Cn2ncc(N3CC(c4ccccn4)CC3=O)c2CN1C(=O)Nc1cc(F)c(F)c(F)c1` (stereo partly drawn) [Example 353, (6S)-6-methyl-3-[2-oxo-4-(2-pyridyl)pyrrolidin-1-yl]-N-(3,4,5-trifluorophenyl)-6,7-dihydro-4H-pyrazolo[1,5-a]pyrazine-5-carboxamide], for which the midpoint of the response, the EC50, lay at 5 nM.
With `C[C@H]1Cn2ncc(N3CC(c4ccncc4)CC3=O)c2CN1C(=O)Nc1cc(F)c(F)c(F)c1` (stereo partly drawn) [Example 354, (6S)-6-methyl-3-[2-oxo-4-(4-pyridyl)pyrrolidin-1-yl]-N-(3,4,5-trifluorophenyl)-6,7-dihydro-4H-pyrazolo[1,5-a]pyrazine-5-carboxamide] the figure was 13 nM.
In the case of `C[C@H]1Cn2ncc(N3CCCC3=O)c2CN1C(=O)Nc1ccc(F)c(Cl)c1` [Example 355, (6S)—N-(3-chloro-4-fluoro-phenyl)-6-methyl-3-(2-oxopyrrolidin-1-yl)-6,7-dihydro-4H-pyrazolo[1,5-a]pyrazine-5-carboxamide], the EC50 was determined as 36 nM.
In the case of `C[C@H]1Cn2ncc(N3CCCC3=O)c2CN1C(=O)Nc1cc(F)c(F)c(F)c1` [Example 356, (6S)-6-methyl-3-(2-oxopyrrolidin-1-yl)-N-(3,4,5-trifluorophenyl)-6,7-dihydro-4H-pyrazolo[1,5-a]pyrazine-5-carboxamide], the EC50 amounted to 50 nM.
`CC1CCC(=O)N(c2cnn3c2CN(C(=O)Nc2cc(F)c(F)c(F)c2)[C@@H](C)C3)C1` (stereo partly drawn) [Example 358, (6S)-6-methyl-3-(5-methyl-2-oxo-1-piperidyl)-N-(3,4,5-trifluorophenyl)-6,7-dihydro-4H-pyrazolo[1,5-a]pyrazine-5-carboxamide] returned an EC50 of 43 nM.
`C[C@H]1Cn2ncc(N3CC(C#N)(CO)CC3=O)c2CN1C(=O)Nc1cc(F)c(F)c(F)c1` (stereo partly drawn) [Example 360, (6S)-3-[4-cyano-4-(hydroxymethyl)-2-oxo-pyrrolidin-1-yl]-6-methyl-N-(3,4,5-trifluorophenyl)-6,7-dihydro-4H-pyrazolo[1,5-a]pyrazine-5-carboxamide] came in with a concentration for a half-maximal effect (EC50) of 43 nM.
`C[C@H]1Cn2ncc(N3CC(C)(C#N)CC3=O)c2CN1C(=O)Nc1cc(F)c(F)c(C(F)F)c1` (stereo partly drawn) [Example 361, (6S)-3-(4-cyano-4-methyl-2-oxo-pyrrolidin-1-yl)-N-[3-(difluoromethyl)-4,5-difluoro-phenyl]-6-methyl-6,7-dihydro-4H-pyrazolo[1,5-a]pyrazine-5-carboxamide] showed an EC50 of 11 nM.
The same measure for `C[C@H]1Cn2ncc(N3CC(C)(CO)CC3=O)c2CN1C(=O)Nc1cc(F)c(F)c(F)c1` (stereo partly drawn) [Example 362, (6S)-3-[4-(hydroxymethyl)-4-methyl-2-oxo-pyrrolidin-1-yl]-6-methyl-N-(3,4,5-trifluorophenyl)-6,7-dihydro-4H-pyrazolo[1,5-a]pyrazine-5-carboxamide]: 32 nM; for `C[C@H]1Cn2ncc(N3CC(N(C)c4ncccn4)CC3=O)c2CN1C(=O)Nc1cc(F)c(F)c(F)c1` (stereo partly drawn) [Example 363, (6S)-6-methyl-3-[4-[methyl(pyrimidin-2-yl)amino]-2-oxo-pyrrolidin-1-yl]-N-(3,4,5-trifluorophenyl)-6,7-dihydro-4H-pyrazolo[1,5-a]pyrazine-5-carboxamide]: 9 nM; for `C[C@H]1Cn2ncc(N3CCOCC3=O)c2CN1C(=O)Nc1ccc(F)c(Cl)c1` [Example 364, (6S)—N-(3-chloro-4-fluoro-phenyl)-6-methyl-3-(3-oxomorpholin-4-yl)-6,7-dihydro-4H-pyrazolo[1,5-a]pyrazine-5-carboxamide]: 28 nM.
The same measure for `C[C@H]1Cn2ncc(N3CCNC3=O)c2CN1C(=O)Nc1cc(F)c(F)c(F)c1` [Example 368, (6S)-6-methyl-3-(2-oxoimidazolidin-1-yl)-N-(3,4,5-trifluorophenyl)-6,7-dihydro-4H-pyrazolo[1,5-a]pyrazine-5-carboxamide]: 47 nM; for `C[C@H]1Cn2ncc(N3CC(C)(C)OCC3=O)c2CN1C(=O)Nc1ccc(F)c(Cl)c1` [Example 371, (6S)—N-(3-chloro-4-fluoro-phenyl)-3-(2,2-dimethyl-5-oxo-morpholin-4-yl)-6-methyl-6,7-dihydro-4H-pyrazolo[1,5-a]pyrazine-5-carboxamide]: 20 nM.
As for `C[C@H]1Cn2ncc(N3C(=O)COC[C@@H]3C)c2CN1C(=O)Nc1cc(F)c(F)c(F)c1` [Example 372, (6S)-6-methyl-3-[(3S)-3-methyl-5-oxo-morpholin-4-yl]-N-(3,4,5-trifluorophenyl)-6,7-dihydro-4H-pyrazolo[1,5-a]pyrazine-5-carboxamide], the EC50 is 50 nM.
With `C[C@H]1Cn2ncc(N3CCNC3=O)c2CN1C(=O)Nc1cc(F)c(F)c(C(F)F)c1` [Example 373, (6S)—N-[3-(difluoromethyl)-4,5-difluoro-phenyl]-6-methyl-3-(2-oxoimidazolidin-1-yl)-6,7-dihydro-4H-pyrazolo[1,5-a]pyrazine-5-carboxamide] the figure was 22 nM; with `C[C@H]1Cn2ncc(N3C[C@H](O)CC3=O)c2CN1C(=O)Nc1cc(F)c(F)c(F)c1` [Example 376, (6S)-3-[(4R)-4-hydroxy-2-oxo-pyrrolidin-1-yl]-6-methyl-N-(3,4,5-trifluorophenyl)-6,7-dihydro-4H-pyrazolo[1,5-a]pyrazine-5-carboxamide], 88 nM.
`C[C@H]1Cn2ncc(N3C[C@@H](O)CC3=O)c2CN1C(=O)Nc1cc(F)c(F)c(F)c1` [Example 377, (6S)-3-[(4S)-4-hydroxy-2-oxo-pyrrolidin-1-yl]-6-methyl-N-(3,4,5-trifluorophenyl)-6,7-dihydro-4H-pyrazolo[1,5-a]pyrazine-5-carboxamide] had an EC50 of 81 nM.
With `CO[C@H]1CC(=O)N(c2cnn3c2CN(C(=O)Nc2cc(F)c(F)c(F)c2)[C@@H](C)C3)C1` [Example 378, (6S)-3-[(4S)-4-methoxy-2-oxo-pyrrolidin-1-yl]-6-methyl-N-(3,4,5-trifluorophenyl)-6,7-dihydro-4H-pyrazolo[1,5-a]pyrazine-5-carboxamide] the figure was 28 nM; with `CO[C@@H]1CC(=O)N(c2cnn3c2CN(C(=O)Nc2cc(F)c(F)c(F)c2)[C@@H](C)C3)C1` [Example 379, (6S)-3-[(4R)-4-methoxy-2-oxo-pyrrolidin-1-yl]-6-methyl-N-(3,4,5-trifluorophenyl)-6,7-dihydro-4H-pyrazolo[1,5-a]pyrazine-5-carboxamide], 38 nM.
With `C[C@H]1Cn2ncc(N3C[C@@H](Oc4ncccn4)CC3=O)c2CN1C(=O)Nc1cc(F)c(F)c(F)c1` [Example 381, (6S)-6-methyl-3-[(4S)-2-oxo-4-pyrimidin-2-yloxy-pyrrolidin-1-yl]-N-(3,4,5-trifluorophenyl)-6,7-dihydro-4H-pyrazolo[1,5-a]pyrazine-5-carboxamide] the figure was 5 nM; with `C[C@H]1Cn2ncc(N3C[C@@H](Oc4ncc(F)cn4)CC3=O)c2CN1C(=O)Nc1cc(F)c(F)c(F)c1` [Example 382, (6S)-3-[(4S)-4-(5-fluoropyrimidin-2-yl)oxy-2-oxo-pyrrolidin-1-yl]-6-methyl-N-(3,4,5-trifluorophenyl)-6,7-dihydro-4H-pyrazolo[1,5-a]pyrazine-5-carboxamide], 16 nM.

Values taken from US11168086B2, “Methods of synthesizing pyrazine compounds” (Hoffmann-La Roche Inc., priority 2015, dated 2021).
